Experimental data taken from PubChem BioAssay (NCI).
“And” between values parts separate entries of the source, which are not always exact repeats. Identical values can stand only once.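 Five concentrations, 48 hours, 96-well plates. Abbreviation: GI50, concentration required for 50% inhibition of growth. At the TGI there is no net growth.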

What was measured:
Assay in all cases: NCI anticancer screen, dose series, 48 h
[1] = test system: NCI-H23 lung
[2] = test system: MDA-MB-231 breast
[3] = test system: OVCAR-8 ovarian
[4] = test system: SNB-19 CNS
[5] = test system: RPMI-8226 leukemia
[6] = test system: NCI/ADR-RES ovarian
[7] = test system: HCT-116 colon
[8] = test system: CCRF-CEM leukemia
[9] = test system: OVCAR-4 ovarian
[10] = test system: 786-0 renal

Compound	GI50 [1]	TGI [1]	GI50 [2]	TGI [2]	GI50 [3]	TGI [3]	GI50 [4]	TGI [4]	GI50 [5]	TGI [5]	GI50 [6]	TGI [6]	GI50 [7]	TGI [7]	GI50 [8]	TGI [8]	GI50 [9]	TGI [9]	GI50 [10]	TGI [10]
COc1ccc(-c2cc(=O)c3c(OC)c4ccoc4c(/C=C/C=O)c3o2)cc1	2.8 µM	13 µM	4.22 µM	85.3 µM	2.83 µM	27.3 µM	3.16 µM	46.6 µM	1.37 µM	5.29 µM	2.84 µM	48 µM	1.06 µM	3.43 µM	1.09 µM	> 100 µM	3.8 µM	> 100 µM	16.8 µM	72.5 µM
CSC1=CC(=O)c2ccccc2C1=O	3.45 µM	17.5 µM	1.29 µM	3.02 µM	3.58 µM	15 µM	13.8 µM	29.4 µM	2.61 µM	7.96 µM	2.81 µM	11.7 µM	1.52 µM	2.92 µM	0.296 µM	1.44 µM	1.36 µM	2.67 µM	4.06 µM	14.1 µM
CS(=O)(=O)Nc1cc(-c2ccc3ncc(C#N)c(Nc4ccc(F)c(Cl)c4)c3c2)cnc1Cl	0.108 µM	3.91 µM	0.237 µM	0.786 µM	0.331 µM	> 100 µM	0.212 µM	1.64 µM	0.0833 µM	0.469 µM	0.633 µM	> 100 µM	0.0486 µM	–	0.0911 µM	> 31 µM	0.243 µM	–	0.256 µM	–
C[n+]1cccc(NC(=O)c2ccc3ccc4ccc(C(=O)Nc5ccc[n+](C)c5)nc4c3n2)c1	1.41 µM	> 45 µM	2.41 µM	> 52.4 µM	9.02 µM	> 100 µM	1.61 µM	> 27 µM	2.99 µM	> 100 µM	> 100 µM	> 100 µM	3.18 µM	> 100 µM	5.56 µM	> 100 µM	7.37 µM	> 100 µM	8.99 µM	> 100 µM
CC(C)c1cnc(-c2cc(Cl)ccc2F)cc1Nc1ccncc1C(=O)NC(CO)CO	13.9 µM	33.5 µM	15.3 µM	44.3 µM	14.6 µM	49.8 µM	15.6 µM	54 µM	13.5 µM	52.6 µM	20.8 µM	63.2 µM	12.5 µM	28.5 µM	11.6 µM	54.2 µM	13.7 µM	66.3 µM	14.1 µM	37.1 µM
Cc1ccc(C2=NN(c3ccc(S(=O)(=O)NC(=O)NCc4ccccc4)cc3)C(c3ccc(N(C)C)cc3)C2)c(C)c1 (stereo unspecified)	3.6 µM	17.8 µM	4.16 µM	22.4 µM	3.81 µM	> 100 µM	4.6 µM	> 100 µM	2.88 µM	10.6 µM	3.93 µM	25.1 µM	4 µM	14.9 µM	3.2 µM	89 µM	3.54 µM	> 100 µM	4.37 µM	36.1 µM
COc1cc(/C=C2\CC3C4CCC5=CC(=O)CC[C@]5(C)C4CC[C@]3(C)C2=O)ccc1OCCN1CCCC1 (stereo partly specified)	3.31 µM	13.4 µM	2.01 µM	5.1 µM	3.4 µM	13.5 µM	4.16 µM	18.8 µM	0.202 µM	0.889 µM	2.45 µM	6.51 µM	1.41 µM	3.79 µM	1.12 µM	4.35 µM	3.94 µM	15.1 µM	1.22 µM	2.91 µM
Cc1[nH]c(C(=O)Nc2cccc(OC3CCNCC3)c2)c(Cl)c1Cl	2.14 µM	5.54 µM	1.74 µM	3.45 µM	2.05 µM	4.31 µM	2.11 µM	5.18 µM	2.05 µM	4.59 µM	1.84 µM	3.47 µM	1.65 µM	3.24 µM	1.92 µM	4.26 µM	2.6 µM	6.76 µM	1.83 µM	3.44 µM
COc1ccc2[nH]c(C(=O)OCc3ccc4c(Br)cc(Br)c(O)c4n3)cc2c1	1.38 µM	2.99 µM	0.808 µM	2.17 µM	0.907 µM	2.64 µM	1.5 µM	2.89 µM	0.308 µM	1.29 µM	1.68 µM	7.3 µM	0.187 µM	0.543 µM	0.331 µM	> 100 µM	0.895 µM	2.25 µM	1.23 µM	2.61 µM
Nc1c(C(=O)Nc2cccc(Cl)c2)sc2nc3c(cc12)C(O)CCC3 (stereo unspecified)	0.711 µM	> 100 µM	1.92 µM	49.1 µM	0.714 µM	22.9 µM	4.35 µM	99.4 µM	0.36 µM	5.01 µM	0.583 µM	> 100 µM	0.44 µM	19.1 µM	0.31 µM	17.3 µM	5.51 µM	40.2 µM	0.66 µM	20.4 µM
Nc1nc2ccc(CNc3ccc(C(=O)NC(CC(=O)O)C(=O)O)cc3)cc2c(=O)[nH]1 (stereo unspecified)	5.83 µM	> 100 µM	> 100 µM	> 100 µM	1.16 µM	> 100 µM	> 82.5 µM	> 100 µM	9.23 µM	> 100 µM	2.71 µM	> 100 µM	0.478 µM	> 100 µM	4.86 µM	> 100 µM	> 100 µM	> 100 µM	2.18 µM	> 100 µM
O=C(O)CN1C(=O)OC(c2ccccc2)C1=O (stereo unspecified)	–	> 100 µM	–	> 100 µM	–	> 100 µM	–	> 100 µM	–	> 100 µM	–	> 100 µM	–	> 100 µM	–	> 100 µM	–	> 100 µM	–	> 100 µM
CCCCCCCCCCCCC(O)C1CCC(C(O)CCCCC(O)CCCCCC2CC(CC(C)=O)C(=O)O2)O1 (stereo unspecified)	–	13.6 µM	–	7.38 µM	1.38 µM	3.48 µM and 20.9 µM	–	15.3 µM	1.28 µM and 0.367 µM	4.73 µM and 18.5 µM	–	2.3 µM	1.93 µM	14.8 µM	–	5.6 µM and 8.12 µM	–	19.1 µM	3.91 µM	19.7 µM
O=S(=O)(NCCNc1nccc(-c2c(-c3ccc(F)cc3)nc3sccn23)n1)c1ccc(O)cc1	4.96 µM	28.1 µM	7.77 µM	70.1 µM	1.98 µM	22.5 µM	12.5 µM	> 100 µM	4.52 µM	29.3 µM	19.5 µM	> 100 µM	1.43 µM	22.1 µM	2 µM	29.8 µM	3.52 µM	21.6 µM	4.26 µM	39.7 µM
CC(=O)Oc1ccc(C2OC(c3ccc4ccccc4c3OC(C)=O)=NN2C(C)=O)c(OC(C)=O)c1 (stereo unspecified)	1.28 µM	97.4 µM	0.506 µM	> 89.6 µM	0.363 µM	> 100 µM	0.56 µM	> 100 µM	0.568 µM	> 39.5 µM	0.394 µM	> 74.1 µM	0.328 µM	> 40.2 µM	0.32 µM	> 100 µM	0.291 µM	> 75.9 µM	0.479 µM	> 77.2 µM
CCOC(=O)c1c(C)n([O-])c2cc(F)c(F)cc2[n+]1=O	1.88 µM	3.78 µM	0.955 µM	2.58 µM	0.88 µM	2.47 µM	1.53 µM	2.86 µM	6.18 µM	28.2 µM	0.432 µM	1.98 µM	0.351 µM	1.28 µM	1.1 µM	7.84 µM	1.72 µM	3.92 µM	6.73 µM	19.8 µM
CCOC(=O)C1=C(C)NC2SC(=O)/C(=C\c3cccc(Cl)c3)N2C1c1ccccc1 (stereo unspecified)	> 100 µM	> 100 µM	> 100 µM	> 100 µM	> 100 µM	> 100 µM	> 100 µM	> 100 µM	> 100 µM	> 100 µM	> 100 µM	> 100 µM	> 100 µM	> 100 µM	> 100 µM	> 100 µM	84.3 µM	> 100 µM	> 100 µM	> 100 µM
COc1ccccc1/C=C1\CCC(Cc2ccccc2)(CN(C)C)C1=O (stereo unspecified)	–	> 100 µM	–	46.7 µM	–	22.9 µM	–	> 100 µM	–	39.1 µM	–	> 100 µM	–	39.4 µM	–	24.4 µM	–	> 100 µM	–	23.4 µM
CC[C@]12C=CCN3CC[C@]4(C(=C(C(=O)OC)C1)Nc1cc5c(cc14)[C@@H]1[C@H](O5)[C@@H](O)[C@@]4(CC)CC(C(=O)OC)=C5Nc6ccccc6[C@@]56CCN1[C@@H]46)[C@@H]32	0.577 µM and 0.316 µM	4.51 µM and 1.46 µM	0.155 µM and 0.395 µM	10.2 µM and 28.9 µM	0.648 µM and 0.449 µM	25 µM and > 100 µM	0.644 µM and 0.592 µM	25 µM and 42.1 µM	0.141 µM and 0.234 µM	2.49 µM and 1.5 µM	0.825 µM and 0.714 µM	25 µM and > 100 µM	0.216 µM and 0.341 µM	2.59 µM and 1.65 µM	0.238 µM and 0.345 µM	25 µM and > 100 µM	0.365 µM and 0.397 µM	13 µM and > 100 µM	0.252 µM and 0.383 µM	10 µM and 33.6 µM
COc1cc2c(Nc3ccc(-c4ccc(N)cc4)cc3)ncnc2c(OC)c1OC	19.5 µM	> 100 µM	2.9 µM	> 100 µM	5.46 µM	56.9 µM	7.76 µM	> 100 µM	3.78 µM	41.4 µM	4.54 µM	> 100 µM	3.79 µM	55.3 µM	6.09 µM	> 100 µM	6.01 µM	> 100 µM	3.72 µM	> 100 µM
COc1ccccc1CNCCCN1C(=O)c2ccc3c4c(ccc(c24)C1=O)C(=O)N(CCCNCCCCNCCCN)C3=O	0.356 µM	2.05 µM	0.431 µM	10.5 µM	0.285 µM	2.19 µM	0.574 µM	3.97 µM	0.626 µM	10.8 µM	2.02 µM	7.7 µM	0.315 µM	1.16 µM	0.425 µM	19.9 µM	0.167 µM	0.319 µM	1.03 µM	3.78 µM
CCOc1cc(Cl)c(C(C)NC(=O)c2cccc(OC)c2)cc1OCC (stereo unspecified)	21.7 µM	> 100 µM	11.1 µM	> 100 µM	25.7 µM	> 100 µM	12.6 µM	> 100 µM	16.1 µM	> 100 µM	4.18 µM	> 100 µM	4.48 µM	> 100 µM	11.7 µM	> 100 µM	17.9 µM	99.4 µM	20.5 µM	> 100 µM
O=C(Cc1cc(O)ccc1O)NO	> 100 µM	> 100 µM	19.9 µM	47 µM	> 100 µM	> 100 µM	31.2 µM	> 100 µM	19 µM	40 µM	> 100 µM	> 100 µM	18 µM	32.4 µM	22.3 µM	48.6 µM	> 100 µM	> 100 µM	18.9 µM	34.5 µM
O=C(O)c1ccc(CSc2nc3ccccc3[nH]2)cc1	> 100 µM	> 100 µM	> 100 µM	> 100 µM	> 100 µM	> 100 µM	> 100 µM	> 100 µM	> 100 µM	> 100 µM	> 100 µM	> 100 µM	> 100 µM	> 100 µM	> 100 µM	> 100 µM	> 100 µM	> 100 µM	> 100 µM	> 100 µM
CC1(C)N=C(N)N=C(N)N1c1ccc(OCC(=O)Nc2ccc(S(=O)(=O)F)cc2Cl)c(Cl)c1	4.37 µM	> 100 µM	54.4 µM	> 100 µM	7.79 µM	> 100 µM	> 100 µM	> 100 µM	64.9 µM	> 100 µM	61.1 µM	> 100 µM	2.7 µM	> 100 µM	0.277 µM	> 100 µM	> 100 µM	> 100 µM	3.13 µM	> 100 µM
